Results published in the supplement of paper PMC8372320.

Test: photocatalytic hydrogen evolution rate (per 5 mg catalyst); higher = more photocatalytic H2 evolution; extreme values may be limits of the assay
Conditions: catalyst mass (mg): 5; Pt cocatalyst (wt%): 3; sacrificial medium: triethylamine/methanol/water 1:1:1
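Further: aromatic molecules in triethylamine/methanol/water with Pt photoreduced in situ, irradiated 3 h under a 1 sun AM 1.5G solar simulator (350–1000 nm), H2 quantified by headspace gas chromatography; listed molecule itself used as the photocatalyst at 5 mg per vial.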

SMILES	photocatalytic hydrogen evolution rate [µmol/h]
N#Cc1cccc(-c2ccc(N)cc2)c1	0
C(C#Cc1ccccc1)#Cc1ccccc1	0
O=Cc1ccc(Br)c(Cl)c1	1.45
O=Cc1cc(O)cc(Cl)c1	0.000189
Nc1cc(Br)c(F)cc1Br	0
N#Cc1c(-n2c3ccccc3c3ccccc32)c(-n2c3ccccc3c3ccccc32)c(C#N)c(-n2c3ccccc3c3ccccc32)c1-n1c2ccccc2c2ccccc21	1.6
N#Cc1ccccc1-c1ccccc1C#N	0
Oc1ccc2ccccc2c1-c1c(O)ccc2ccccc12	0
Cn1c2ccc(Br)cc2c(=O)c2cc(Br)ccc21	9.21
Cc1cc(C#N)ncc1Br	0
O=Cc1ccc(-c2ccccc2)cc1	4.67
CC1(C)OB(c2ccc3c(c2)[nH]c2ccccc23)OC1(C)C	0
Brc1ccc2ccc3c(Br)ccc4ccc1c2c43	0.16
Nc1nc2ccccc2[nH]1	0
Brc1cc(Br)cc(-c2ccccc2)c1	0
O=Cc1cc(Br)cc(Br)c1	0.234
O=Cc1ccc(Oc2ccc(C=O)cc2)cc1	2.42
CCCCCCC1(CCCCCC)c2cc(Br)ccc2-c2ccc(Br)cc21	0
N#Cc1csc(Br)n1	0
N#Cc1cncc(-c2cncc(C#N)c2)c1	0
Brc1ccc(-c2nc(-c3ccc(Br)cc3)nc(-c3ccc(Br)cc3)n2)cc1	0.0311
O=C(O)c1ccc(-c2ccc(-c3ccc(C(=O)O)cc3)cc2)cc1	1.84
O=C(O)c1ccc(-c2cc(-c3ccc(C(=O)O)cc3)cc(-c3ccc(C(=O)O)cc3)c2)cc1	0.00212
O=Cc1ccc(N(c2ccc(C=O)cc2)c2ccc(C=O)cc2)cc1	1.46

SMILES	photocatalytic hydrogen evolution rate [µmol/h]
Oc1ccc2cc(Br)ccc2c1-c1c(O)ccc2cc(Br)ccc12	0
O=S1(=O)c2ccc(Br)cc2-c2cc(Br)ccc21	0.009
N#Cc1nc2c3nc(C#N)c(C#N)nc3c3nc(C#N)c(C#N)nc3c2nc1C#N	0
N#Cc1c[nH]c2ccc(Br)cc12	0.015
c1cc(-c2nc(-c3ccncc3)nc(-c3ccncc3)n2)ccn1	0
Nc1ccc(S(=O)(=O)c2ccc(N)cc2)cc1	0.00797
Brc1cnc2c(ccc3cc(Br)cnc32)c1	0.655
N#Cc1cc(F)c(F)c(F)c1F	0
CC(C)(C)c1cc(C=O)cc(C(C)(C)C)c1O	0
N#CCC(=O)c1ccccc1	0
c1ccc2c(c1)Nc1ccccc1O2	0
OC(c1ccccc1)(c1ccccc1)c1ccccc1	0
Cc1cnc(C#N)c(C#N)n1	0
COc1ccc(I)cc1	0
Nc1ccc(N)cc1	0
N#Cc1cc(Br)cc(Br)c1O	0.31
O=C(O)c1c2ccccc2c(C(=O)O)c2ccccc12	0
O=Cc1cc(C=O)c(O)c(C=O)c1	10.9
COC(=O)c1cccc(C(=O)OC)n1	0.0266
N#Cc1cc(C#N)ncn1	0
OCc1ccc(-c2ccc(CO)cc2)cc1	0.00977
c1ccc(-c2cccc(-c3ccccc3)c2)cc1	0
O=C1C(F)=C(F)C(=O)C(F)=C1F	0
O=Cc1cc(F)cc(Br)c1	0.0795

SMILES	photocatalytic hydrogen evolution rate [µmol/h]
N#Cc1c(F)c(F)c(F)c(F)c1F	0.0353
Brc1ccc2cc(Br)ccc2c1	0
Brc1cncc(Br)c1	0
COc1ccc(OC)c(C=O)c1	10.9
COC(=O)c1ccc2cc(B3OC(C)(C)C(C)(C)O3)ccc2c1	1.49
N#Cc1c(Cl)c(Cl)c(C#N)c(Cl)c1Cl	1.44
O=C1c2ccccc2-c2ccc3c4ccc5c6c(ccc(c7ccc1c2c73)c64)C(=O)c1ccccc1-5	0.407
Fc1cc(Br)ccc1Br	0
O=C(c1ccccc1)c1ccncc1	2.41
N#Cc1ccc(-c2ccc(C#N)nc2)cn1	0.0601
CCOC(=O)c1ccc(C(=O)OCC)nc1	0.0237
Nc1ccc(-c2cc(-c3ccc(N)cc3)cc(-c3ccc(N)cc3)c2)cc1	0
Cc1cc(C=O)ccc1O	0.0172
c1cc(-c2cn[nH]c2)ccc1-c1cn[nH]c1	0
Nc1nc(Br)cnc1Br	0.0666
c1ccc(N(c2ccccc2)c2ccc(N(c3ccccc3)c3ccccc3)cc2)cc1	0
O=Cc1ccc(C(=O)O)cc1	2.34
N#Cc1cncc(Br)c1	0
NC(=O)c1ccc(B(O)O)cc1	0
Cc1cc(-c2ccc(N)c(C)c2)ccc1N	0
O=Cc1ccc(C(=O)O)cc1O	8.19
Fc1c(F)c(F)c(B(c2c(F)c(F)c(F)c(F)c2F)c2c(F)c(F)c(F)c(F)c2F)c(F)c1F	0.0455
Fc1cc(Br)c(F)cc1Br	0
O=Cc1ccc2nsnc2c1	0

SMILES	photocatalytic hydrogen evolution rate [µmol/h]
Brc1cc(Br)c2[nH]c3c(Br)cc(Br)cc3c2c1	0.128
COc1cc(Br)c(OC)cc1Br	0
c1cncc(-c2nc(-c3cccnc3)nc(-c3cccnc3)n2)c1	0.168
O=[N+]([O-])c1cc([N+](=O)[O-])c(F)cc1F	0
Brc1ccc2c3ccc(Br)cc3n(-c3ccccc3)c2c1	0.0572
CC(C)(C)c1cc2ccc3c(Br)cc(Br)c4ccc(c1)c2c34	0.121
N#Cc1c(F)c(F)nc(F)c1F	0.00201
CC(=O)c1ccc(C(C)=O)cc1	5.52
N#Cc1ccc(C#N)cc1	0
C(#Cc1ccccc1)c1ccccc1	0
O=Cc1ccccc1C=O	0.491
N#CCc1ccc(Cl)nc1	0
O=C1OC2(c3ccc(O)cc3Oc3cc(O)ccc32)c2ccccc21	20.2
COc1cc(Br)cc(OC)c1	0.0348
O=Cc1ccc(-c2cncnc2)cc1	2.58
O=C1NC(=O)c2cccc3cccc1c23	24.5
N#Cc1cc(Br)c(N)c(Br)c1	0
COc1ccc(OC)cc1	0
Brc1ccc(C#Cc2ccc(Br)cc2)cc1	0
Nc1ccc(-c2ccc(N)c(F)c2)cc1F	0
Cc1c(O)cccc1O	0
O=C(O)c1cc(C(=O)O)cc(-c2ccc(-c3cc(C(=O)O)cc(C(=O)O)c3)cc2)c1	0.0522
N#Cc1cc(Br)ccn1	0
O=Cc1cc(C=O)cc(C=O)c1	0.0923

SMILES	photocatalytic hydrogen evolution rate [µmol/h]
O=C(c1ccc(Br)cc1)c1ccc(Br)cc1	6.77
N#Cc1c(O)[nH]c(=O)c(C#N)c1-c1ccccc1	0
CCc1ccc(C(=O)CC#N)cc1	0.0661
O=c1c2ccccc2c(=O)c2cc3c(=O)c4ccccc4c(=O)c3cc12	0
CC(C)(C)c1ccc(Nc2ccc(Nc3ccc(C(C)(C)C)cc3)c3c2C(=O)c2c(O)ccc(O)c2C3=O)cc1	0
Brc1ccc(-c2ccc(-c3ccc(Br)cc3)cc2)cc1	0
Cc1cc(N)ccc1-c1ccc(N)cc1C	0.055
O=C(O)c1c(C(=O)O)c(C(=O)O)c(C(=O)O)c(C(=O)O)c1C(=O)O	0
COC(=O)c1cc(C(=O)OC)c(C(=O)OC)cc1C(=O)OC	0
N#Cc1c2ccccc2cc2ccccc12	0.294
O=C1OC2(c3ccccc31)c1cc(I)c(O)c(I)c1Oc1c2cc(I)c(O)c1I	28.3
CCCCCCCCCCCCC1(CCCCCCCCCCCC)c2cc(B(O)O)ccc2-c2ccc(B(O)O)cc21	0.132
c1ccc2c(c1)cc1ccc3cccc4ccc2c1c34	0.00851
c1ccc2cc3ccccc3cc2c1	0
CCc1c(CBr)c(CC)c(CBr)c(CC)c1CBr	0
O=C1OC(=O)c2ccc3c4c(ccc1c24)C(=O)OC3=O	0.0941
N#CC1=C(C#N)SC(C#N)=C(C#N)S1	0
CN1C(=O)c2ccc3c4ccc5c6c(ccc(c7ccc(c2c37)C1=O)c64)C(=O)N(C)C5=O	0
O=C1C(=O)c2cccnc2-c2ncccc21	0
N#Cc1ccc(N)cc1	0
c1csc(-c2ccc(-c3cccs3)c3nsnc23)c1	0.84
O=C(c1ccc(O)cc1)c1ccc(O)cc1	0
COC(=O)c1ccc(C#N)cc1	0
COC(=O)c1cc(C(=O)OC)cc(C(=O)OC)c1	0.0198
